Patent US12691088B2, “Reactivation of mTOR in acute kidney injury (AKI)” (The Trustees of Columbia University in the City of New York, priority 2021, dated 2026)
Where two headings read alike, the source gives them in different places.

Tests used:
[1] = test system: rhabdomyolysis (Rh)-induced iAKI; assay: functional screening of amino acids in rhabdomyolysis (Rh)-induced iAKI (50% glycerol i.m.); format: in vivo, wild type C57BL6 mice
Experimental: FIGS. 2A-L show a functional screening of amino acids for the regulation of rhabdomyolysis (Rh)-induced iAKI. Rh was incurred by intramuscularly injecting 50% glycerol (6 ml/kg), and renal functions were analyzed by quantitating serum creatinine (sCr) and blood urea nitrogen (BUN) after 24, 48 and 168 hours. […] or glutamine (75 mg/kg) were intraperitoneally administered into wild type C57BL6 mice at 1 hour prior to injury incurrence. It was observed that sCr and BUN were reduced at 24 hours (FIGS. 2A, B) in isoleucine-treated rhabdomyolysis mice, but were increased at 48 hours in leucine-treated mice (FIGS. 2C, D) when compared with vehicle (Veh)-treated counterparts (n=7). […] FIG. 2[…], or histidine were intraperitoneally administered into wild type C57BL6 mice at 1 hour prior to injury incurrence and then every 8 hours thereafter. It was observed that threonine reduces sCr and BUN at 24 h and histidine reduces sCr and BUN at 24 h and 48 h when compared with Veh Rh mice. Therefore, threonine and histidine protected from Rh-induced iAKI. […] FIGS. 3A-F show a functional screening of […] or L-valine for the regulation of rhabdomyolysis (Rh)-induced iAKI. Rh was incurred by intramuscularly injecting 50% glycerol (6 ml/kg), and renal functions were analyzed by quantitating serum creatinine (sCr) and blood urea nitrogen (BUN) after 24, 48 and 168 hours. FIGS. 3[…] or L-valine (75 mg/kg) were intraperitoneally administered into wild type C57BL6 mice at 1 hour prior to injury incurrence and then every 8 hours for a total of 5 doses.

mTORC1 [2] = settings: human embryonic kidney 293A (HEK293A) cells; cited from earlier work
mTORC1 [3] = settings: cited from earlier work; for mTORC1 activation (phosphorylation of S6K1 at threonine 389): mouse embryonic fibroblast (MEF) cells
[4] = test system: ischemia reperfusion (I/R)-induced iAKI; assay: functional screening of amino acids in ischemia reperfusion (I/R)-induced iAKI; format: in vivo, wild type C57B/L6 mice; settings: 48 hours reperfusion after 25 min ischemia, 75 mg/kg i.p. 1 hour prior and every 8 hours afterwards, vs vehicle; for BUN / sCr: n=5-6
Experimental: FIGS. 4A-F show functional screening of amino acids for the regulation of ischemia reperfusion (I/R)-induced iAKI. Ischemia was incurred by clamping renal artery of the left kidney for 25 min while the right kidney was removed prior to clamping. Renal functions were analyzed by quantitating serum creatinine (sCr) and blood urea nitrogen (BUN) after the reperfusion for 48 hours. FIGS. 4[…]) or L-valine (Val; 75 mg/kg) were intraperitoneally administered into wild type C57B/L6 mice 1 hour prior to the induction of ischemic and every 8 hours afterwards.

[5] = test system: ischemic acute kidney injury (AKI); assay: ischemia/reperfusion (IR) ischemic AKI in nephron-specific Spns1 knockout mice, L-leucine pretreatment; format: in vivo; settings: Spns1f/f/Six2-Cre IR AKI mice; 75 mg/kg i.p. 1 hour prior; 25 min ischemia, 48 hours reperfusion; vs vehicle; n=4-7
Experimental: (§1) L-leucine (75 mg/kg) was intraperitoneally administered into wild type (WT) and nephron-specific Spns1 knockout (Spns1f/f/Six2-Cre) mice 1 hour prior to initiating ischemic AKI. The left kidney was then removed. Ischemia/reperfusion (IR) was performed by clamping the renal artery of the right kidney for 25 min of ischemia followed by 48 hours of reperfusion.

[6] = test system: ischemic acute kidney injury (AKI); assay: ischemia/reperfusion (IR) ischemic AKI in wild type mice, L-leucine pretreatment; format: in vivo; settings: WT IR AKI mice; 75 mg/kg i.p. 1 hour prior; 25 min ischemia, 48 hours reperfusion; vs vehicle; n=4-7
Experimental: as §1

[7] = 24 h post Rh, i.p. 1 hour prior to injury and every 8 hours thereafter, vs Veh Rh mice (FIG. 2G)
[8] = 24 h post Rh, i.p. 1 hour prior to injury and every 8 hours thereafter, vs Veh Rh mice (FIG. 2H)
[9] = 24 hours post Rh, 75 mg/kg i.p. 1 hour prior to injury then every 8 hours, total 5 doses, vs vehicle, n=7 (FIG. 3A)
[10] = 24 hours post Rh, 75 mg/kg i.p. 1 hour prior to injury then every 8 hours, total 5 doses, vs vehicle, n=7 (FIG. 3B)

Structure (SMILES)	mTORC1 activation (phosphorylation of S6K1 at threonine 389) (mTORC1 [2])	mTORC1 activation (phosphorylation of S6K1 at threonine 389) (mTORC1 [3])	BUN [4]	sCr [4]	other results
N[C@@H](Cc1c[nH]cn1)C(=O)O [L-histidine]	activate	activate	reduced	reduced	sCr [1, 7]: reduces; BUN [1, 8]: reduces; sCr ([1]; 48 h post Rh, i.p. 1 hour prior to injury and every 8 hours thereafter, vs Veh Rh mice (FIG. 2I)): reduces; BUN ([1]; 48 h post Rh, i.p. 1 hour prior to injury and every 8 hours thereafter, vs Veh Rh mice (FIG. 2J)): reduces
N[C@@H](CC(=O)O)C(=O)O [L-aspartic acid]	–	–	reduced	reduced	–
CC[C@H](C)[C@H](N)C(=O)O [L-isoleucine]	–	–	reduced	reduced	sCr ([1]; 24 hours post Rh, 75 mg/kg i.p. 1 hour prior to injury, vs vehicle, n=7 (FIG. 2A)): reduced; BUN ([1]; 24 hours post Rh, 75 mg/kg i.p. 1 hour prior to injury, vs vehicle, n=7 (FIG. 2B)): reduced
C[C@@H](O)[C@H](N)C(=O)O [L-threonine]	activate	activate	reduced	reduced	sCr [1, 7]: reduces; BUN [1, 8]: reduces
N[C@@H](CS)C(=O)O [Cysteine]	–	activates	–	–	–
NC(=O)CC[C@H](N)C(=O)O [L-glutamine]	activate	activate	reduced	reduced	effects on Rh-induced AKI (sCr and BUN) ([1]; 24, 48 and 168 hours post Rh, 75 mg/kg i.p. 1 hour prior to injury, vs vehicle (FIGS. 2A-F)): no significant effects
N[C@@H](CO)C(=O)O [L-serine]	activate	activate	–	–	impacts on I/R-AKI (sCr and BUN) [4]: Neither L-serine (FIGS. 4A, B), L-alanine (FIGS. 4A, B) nor L-methionine (FIGS. 4C, D) had significant impacts
CC(C)[C@H](N)C(=O)O [L-valine]	activate	activate	elevated	elevated	sCr [1, 9]: reduced; BUN [1, 10]: reduced; sCr ([1]; 48 hours post Rh, 75 mg/kg i.p. 1 hour prior to injury then every 8 hours, total 5 doses, vs vehicle, n=7 (FIG. 3C)): reduced; BUN ([1]; 48 hours post Rh, 75 mg/kg i.p. 1 hour prior to injury then every 8 hours, total 5 doses, vs vehicle, n=7 (FIG. 3D)): reduced
NC(=O)C[C@H](N)C(=O)O [asparagine]	activate	activate	–	–	–
CSCC[C@H](N)C(=O)O [L-methionine]	activate	activate	–	–	impacts on I/R-AKI (sCr and BUN) [4]: Neither L-serine (FIGS. 4A, B), L-alanine (FIGS. 4A, B) nor L-methionine (FIGS. 4C, D) had significant impacts
N=C(N)NCCC[C@H](N)C(=O)O [L-arginine]	activate	activate	elevated	elevated	sCr [1, 9]: reduced; BUN [1, 10]: reduced
CC(C)C[C@H](N)C(=O)O [L-leucine]	activate	activate	reduced	reduced	Serum creatinine (sCr) [5]: markedly reduced; blood urea nitrogen (BUN) [5]: markedly reduced; sCr ([1]; 48 hours post Rh, 75 mg/kg i.p. 1 hour prior to injury, vs vehicle, n=7 (FIG. 2C)): increased; BUN ([1]; 48 hours post Rh, 75 mg/kg i.p. 1 hour prior to injury, vs vehicle, n=7 (FIG. 2D)): increased; Serum creatinine (sCr) [6]: markedly reduced; blood urea nitrogen (BUN) [6]: markedly reduced
C[C@H](N)C(=O)O [L-alanine]	activate	activate	–	–	impacts on I/R-AKI (sCr and BUN) [4]: Neither L-serine (FIGS. 4A, B), L-alanine (FIGS. 4A, B) nor L-methionine (FIGS. 4C, D) had significant impacts
C[C@H]1CCC/C=C/[C@@H]2C[C@H](O)C[C@H]2[C@H](O)/C=C/C(=O)O1 [brefeldin A, reference compound]	–	–	–	–	lysosomal localization of mTORC1 induced by glutamine and asparagine (mTORC1 [3]; MEFs): impairs; glutamine and asparagine-induced mTORC1 activation (mTORC1 [3]; wild type and Rag depleted MEFs): inhibits
